The text below walks through data of ChEMBL document CHEMBL3045331, “A clubbed quinazolinone and 4-thiazolidinone as potential antimicrobial agents” (2012).

Holding throughout (format): functional
The subject of one assay is Staphylococcus aureus. The assay is described as follows: Antibacterial activity against Staphylococcus aureus MTCC-96 after 24 hr by serial broth dilution method. The settings on record: MTCC-96, 24 h. Background: In broth dilution the organism is exposed to a series of concentrations in liquid medium.
For the next assay, the system named is Aspergillus clavatus. The assay is described as follows: Antifungal activity against Aspergillus clavatus MTCC 1323 after 48 hr by spot subculture method. As to conditions: MTCC 1323, 48 h.
For the next assay, the system named is Aspergillus niger. The assay is described as follows: Antifungal activity against Aspergillus niger MTCC 282 after 48 hr by spot subculture method. As to conditions: MTCC 282, 48 h.
The subject of the next assay is Escherichia coli. The assay is described as follows: Antibacterial activity against Escherichia coli MTCC 443 after 24 hr by serial broth dilution method. As to conditions: MTCC 443, 24 h.
The subject of a further assay is Pseudomonas aeruginosa. The assay is described as follows: Antibacterial activity against Pseudomonas aeruginosa MTCC-1688 after 24 hr by serial broth dilution method. The settings on record: MTCC-1688, 24 h.
A further assay deals with Candida albicans. The assay is described as follows: Antifungal activity against Candida albicans MTCC 227 after 48 hr by spot subculture method. The settings on record: MTCC 227, 48 h.
A further assay deals with Streptococcus pyogenes. The assay is described as follows: Antibacterial activity against Streptococcus pyogenes MTCC-442 after 24 hr by serial broth dilution method. The settings on record: MTCC-442, 24 h.

Each structure is given as a SMILES string. Values after ≈ are worked out from the molar mass of the structure shown.

As for `Cc1ccc(-c2nc3ccccc3c(=O)n2-c2ccc(C(=O)NN3C(=O)/C(=C/c4cc(Br)ccc4O)SC3c3ccc(O)cc3)cc2)cc1` (stereo not given), the MIC99 against Staphylococcus aureus was 250 µg/mL (≈ 342 µM); with Aspergillus clavatus it was 100 µg/mL (≈ 137 µM); against Aspergillus niger, 1000 µg/mL (≈ 1370 µM); with Escherichia coli it was 500 µg/mL (≈ 683 µM); with Pseudomonas aeruginosa it was 500 µg/mL (≈ 683 µM); with Candida albicans, 500 µg/mL (≈ 683 µM). In addition, the MIC99 in the assay on Streptococcus pyogenes was determined as 100 µg/mL (≈ 137 µM).
Consider `Cc1ccc(-c2nc3ccccc3c(=O)n2-c2ccc(C(=O)NN3C(=O)/C(=C/c4c(Cl)cccc4Cl)SC3c3ccc(O)cc3)cc2)cc1` (stereo not given), for which the MIC99 was determined as 100 µg/mL (≈ 142 µM) in the assay on Staphylococcus aureus; 1000 µg/mL (≈ 1420 µM) in the assay on Aspergillus clavatus; 100 µg/mL (≈ 142 µM) against Aspergillus niger; 50 µg/mL (≈ 70.9 µM) in the assay on Escherichia coli; 200 µg/mL (≈ 283 µM) against Pseudomonas aeruginosa; 500 µg/mL (≈ 709 µM) against Candida albicans. In the assay with Streptococcus pyogenes, this molecule returned an MIC99 of 100 µg/mL (≈ 142 µM).
With `Cc1ccc(-c2nc3ccccc3c(=O)n2-c2ccc(C(=O)NN3C(=O)/C(=C/c4ccc(Cl)cc4)SC3c3ccc(O)cc3)cc2)cc1` (stereo not given), the MIC99 is 500 µg/mL (≈ 745 µM) against Staphylococcus aureus; 1000 µg/mL (≈ 1490 µM) against Aspergillus clavatus; 1000 µg/mL (≈ 1490 µM) with Aspergillus niger; 50 µg/mL (≈ 74.5 µM) against Escherichia coli; 100 µg/mL (≈ 149 µM) against Pseudomonas aeruginosa; 100 µg/mL (≈ 149 µM) in the assay on Candida albicans. The molecule also showed an MIC99 in the assay on Streptococcus pyogenes of 500 µg/mL (≈ 745 µM).
Consider `Cc1ccc(-c2nc3ccccc3c(=O)n2-c2ccc(C(=O)NN3C(=O)/C(=C/c4ccc5ccccc5c4O)SC3c3ccc(O)cc3)cc2)cc1` (stereo not given), for which the MIC99 against Staphylococcus aureus is 100 µg/mL (≈ 142 µM); in the assay on Aspergillus clavatus it was 100 µg/mL (≈ 142 µM); against Aspergillus niger, 1000 µg/mL (≈ 1420 µM); in the assay with Escherichia coli, 100 µg/mL (≈ 142 µM); against Pseudomonas aeruginosa, 50 µg/mL (≈ 71.1 µM); in the assay on Candida albicans, 100 µg/mL (≈ 142 µM). Besides, the MIC99 against Streptococcus pyogenes worked out at 100 µg/mL (≈ 142 µM).
Consider `Cc1ccc(-c2nc3ccccc3c(=O)n2-c2ccc(C(=O)NN3C(=O)/C(=C/c4ccc(F)cc4)SC3c3ccc(O)cc3)cc2)cc1` (stereo not given), for which the MIC99 in the assay on Staphylococcus aureus amounted to 100 µg/mL (≈ 153 µM); in the assay with Aspergillus clavatus it was 1000 µg/mL (≈ 1530 µM); with Aspergillus niger, 500 µg/mL (≈ 764 µM); against Escherichia coli, 500 µg/mL (≈ 764 µM); against Pseudomonas aeruginosa it was 50 µg/mL (≈ 76.4 µM); with Candida albicans it was 100 µg/mL (≈ 153 µM). The same molecule gave an MIC99 against Streptococcus pyogenes of 250 µg/mL (≈ 382 µM).
As for `Cc1ccc(-c2nc3ccccc3c(=O)n2-c2ccc(C(=O)NN3C(=O)/C(=C/c4ccc(O)cc4)SC3c3ccc(O)cc3)cc2)cc1` (stereo not given), the MIC99 in the assay with Staphylococcus aureus stood at 100 µg/mL (≈ 153 µM); with Aspergillus clavatus, 100 µg/mL (≈ 153 µM); against Aspergillus niger, 1000 µg/mL (≈ 1530 µM); against Escherichia coli, 100 µg/mL (≈ 153 µM); in the assay with Pseudomonas aeruginosa it was 500 µg/mL (≈ 766 µM); in the assay on Candida albicans, 1000 µg/mL (≈ 1530 µM). This molecule also yielded an MIC99 in the assay on Streptococcus pyogenes of 50 µg/mL (≈ 76.6 µM).
Take `Cc1ccc(-c2nc3ccccc3c(=O)n2-c2ccc(C(=O)NN3C(=O)/C(=C/c4cccc([N+](=O)[O-])c4)SC3c3ccc(O)cc3)cc2)cc1` (stereo not given): the MIC99 against Staphylococcus aureus is 50 µg/mL (≈ 73.3 µM); with Aspergillus clavatus, 500 µg/mL (≈ 733 µM); with Aspergillus niger it was 100 µg/mL (≈ 147 µM); against Escherichia coli, 25 µg/mL (≈ 36.7 µM); against Pseudomonas aeruginosa, 100 µg/mL (≈ 147 µM); against Candida albicans it was 100 µg/mL (≈ 147 µM). The MIC99 against Streptococcus pyogenes came out at 500 µg/mL (≈ 733 µM).
As for `Cc1ccc(-c2nc3ccccc3c(=O)n2-c2ccc(C(=O)NN3C(=O)/C(=C/c4ccccc4Cl)SC3c3ccc(O)cc3)cc2)cc1` (stereo not given), the MIC99 stood at 500 µg/mL (≈ 745 µM) against Staphylococcus aureus; 1000 µg/mL (≈ 1490 µM) in the assay on Aspergillus clavatus; 1000 µg/mL (≈ 1490 µM) against Aspergillus niger; 200 µg/mL (≈ 298 µM) with Escherichia coli; 500 µg/mL (≈ 745 µM) against Pseudomonas aeruginosa; 1000 µg/mL (≈ 1490 µM) against Candida albicans. Also, the MIC99 in the assay with Streptococcus pyogenes was found to be 100 µg/mL (≈ 149 µM).
On to `COc1ccc(/C=C2\SC(c3ccc(O)cc3)N(NC(=O)c3ccc(-n4c(-c5ccc(C)cc5)nc5ccccc5c4=O)cc3)C2=O)cc1` (stereo not given), for which the MIC99 with Staphylococcus aureus amounted to 500 µg/mL (≈ 750 µM); in the assay on Aspergillus clavatus it was 100 µg/mL (≈ 150 µM); against Aspergillus niger, 100 µg/mL (≈ 150 µM); with Escherichia coli it was 100 µg/mL (≈ 150 µM); in the assay with Pseudomonas aeruginosa it was 500 µg/mL (≈ 750 µM); in the assay on Candida albicans it was 1000 µg/mL (≈ 1500 µM). Also, the MIC99 in the assay on Streptococcus pyogenes is 500 µg/mL (≈ 750 µM).
For the molecule `COc1ccc(/C=C2\SC(c3ccc(O)cc3)N(NC(=O)c3ccc(-n4c(-c5ccc(C)cc5)nc5ccccc5c4=O)cc3)C2=O)c(O)c1` (stereo not given), the MIC99 against Staphylococcus aureus was found to be 250 µg/mL (≈ 366 µM); in the assay with Aspergillus clavatus, 500 µg/mL (≈ 732 µM); in the assay on Aspergillus niger, 1000 µg/mL (≈ 1460 µM); with Escherichia coli it was 100 µg/mL (≈ 146 µM); against Pseudomonas aeruginosa it was 200 µg/mL (≈ 293 µM); in the assay with Candida albicans, 500 µg/mL (≈ 732 µM). For the same molecule, the MIC99 with Streptococcus pyogenes was 500 µg/mL (≈ 732 µM).
As for `COc1ccccc1/C=C1\SC(c2ccc(O)cc2)N(NC(=O)c2ccc(-n3c(-c4ccc(C)cc4)nc4ccccc4c3=O)cc2)C1=O` (stereo not given), the MIC99 was found to be 100 µg/mL (≈ 150 µM) against Staphylococcus aureus; 500 µg/mL (≈ 750 µM) against Aspergillus clavatus; 500 µg/mL (≈ 750 µM) in the assay on Aspergillus niger; 500 µg/mL (≈ 750 µM) in the assay with Escherichia coli; 100 µg/mL (≈ 150 µM) in the assay on Pseudomonas aeruginosa; 500 µg/mL (≈ 750 µM) against Candida albicans. In the assay on Streptococcus pyogenes, this molecule showed an MIC99 of 500 µg/mL (≈ 750 µM).
For `Cc1ccc(-c2nc3ccccc3c(=O)n2-c2ccc(C(=O)NN3C(=O)/C(=C/c4ccccc4)SC3c3ccc(O)cc3)cc2)cc1` (stereo not given), the MIC99 in the assay on Staphylococcus aureus was 500 µg/mL (≈ 785 µM); in the assay with Aspergillus clavatus, 1000 µg/mL (≈ 1570 µM); against Aspergillus niger, 1000 µg/mL (≈ 1570 µM); with Escherichia coli, 200 µg/mL (≈ 314 µM); against Pseudomonas aeruginosa it was 500 µg/mL (≈ 785 µM); against Candida albicans, 500 µg/mL (≈ 785 µM). The molecule further gave an MIC99 with Streptococcus pyogenes of 100 µg/mL (≈ 157 µM).
For `COc1cc(/C=C2\SC(c3ccc(O)cc3)N(NC(=O)c3ccc(-n4c(-c5ccc(C)cc5)nc5ccccc5c4=O)cc3)C2=O)cc(OC)c1OC` (stereo not given), the MIC99 in the assay on Staphylococcus aureus is 100 µg/mL (≈ 138 µM); against Aspergillus clavatus, 1000 µg/mL (≈ 1380 µM); with Aspergillus niger it was 100 µg/mL (≈ 138 µM); with Escherichia coli, 100 µg/mL (≈ 138 µM); in the assay on Pseudomonas aeruginosa it was 100 µg/mL (≈ 138 µM); in the assay on Candida albicans, 1000 µg/mL (≈ 1380 µM). Moreover, in the assay on Streptococcus pyogenes, the MIC99 was determined as 200 µg/mL (≈ 275 µM).
As for `Cc1ccc(-c2nc3ccccc3c(=O)n2-c2ccc(C(=O)NN3C(=O)/C(=C/c4ccc(N(C)C)cc4)SC3c3ccc(O)cc3)cc2)cc1` (stereo not given), the MIC99 stood at 1000 µg/mL (≈ 1470 µM) in the assay on Staphylococcus aureus; 500 µg/mL (≈ 736 µM) against Aspergillus clavatus; 100 µg/mL (≈ 147 µM) in the assay with Aspergillus niger; 25 µg/mL (≈ 36.8 µM) against Escherichia coli; 200 µg/mL (≈ 294 µM) in the assay on Pseudomonas aeruginosa; 1000 µg/mL (≈ 1470 µM) against Candida albicans. Moreover, in the assay with Streptococcus pyogenes, the MIC99 stood at 100 µg/mL (≈ 147 µM).
On to `CC1(C)S[C@@H]2[C@H](NC(=O)[C@H](N)c3ccccc3)C(=O)N2[C@H]1C(=O)O` [AMPICILLIN], for which the MIC99 against Staphylococcus aureus turned out to be 250 µg/mL (≈ 715 µM); with Escherichia coli, 100 µg/mL (≈ 286 µM); in the assay on Pseudomonas aeruginosa, 100 µg/mL (≈ 286 µM); with Streptococcus pyogenes it was 100 µg/mL (≈ 286 µM).
`COC1=CC(=O)C[C@@H](C)[C@]12Oc1c(Cl)c(OC)cc(OC)c1C2=O` [GRISEOFULVIN]: the MIC99 in the assay with Aspergillus clavatus worked out at 100 µg/mL (≈ 283 µM); with Aspergillus niger it was 100 µg/mL (≈ 283 µM); in the assay on Candida albicans, 500 µg/mL (≈ 1420 µM).

As usually defined, the MIC99 is an inhibitory concentration at the 99% level, which refers to growth in some studies and to a panel of isolates in others. A lower MIC99 goes with higher susceptibility.
